The text below walks through data of ChEMBL document CHEMBL1201862, “PubChem BioAssay data set” (2004).

The source made the active and inactive calls.

Assay [1] concerns the target Potassium channel subfamily K member 3 (Rattus norvegicus, UniProt O54912). As to the kind of experiment: SAR analysis for the identification of selective inhibitors of the two-pore domain potassium channel TASK1(KCNK3):Automated Electrophysiology. It is filed as functional.
Assay [2] concerns the target T1, Potassium channel subfamily K member 9 (Homo sapiens, UniProt Q9NPC2). As to the kind of experiment: TASK3 channel blockers, electrophysiology – cell-based, automated electrophysiology, selectivity assay for TASK1 (KCNK3) inhibitor project, SAR follow-up (AID 652210). Type of assay: functional.
Assay [3] deals with T1, Potassium channel subfamily K member 9. In words: KCNK9 flux blockade, concentration-response – cell-based, FluxOR thallium flux, selectivity assay for TASK1 inhibitor project, SAR follow-up (AID 652211).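 Further: potency is for inhibitors of the channel.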 It is filed as functional.
Assay [4] concerns the target T2, Mannose-6-phosphate isomerase (Homo sapiens, UniProt P34949).
T2 sequence (P34949 whole entry): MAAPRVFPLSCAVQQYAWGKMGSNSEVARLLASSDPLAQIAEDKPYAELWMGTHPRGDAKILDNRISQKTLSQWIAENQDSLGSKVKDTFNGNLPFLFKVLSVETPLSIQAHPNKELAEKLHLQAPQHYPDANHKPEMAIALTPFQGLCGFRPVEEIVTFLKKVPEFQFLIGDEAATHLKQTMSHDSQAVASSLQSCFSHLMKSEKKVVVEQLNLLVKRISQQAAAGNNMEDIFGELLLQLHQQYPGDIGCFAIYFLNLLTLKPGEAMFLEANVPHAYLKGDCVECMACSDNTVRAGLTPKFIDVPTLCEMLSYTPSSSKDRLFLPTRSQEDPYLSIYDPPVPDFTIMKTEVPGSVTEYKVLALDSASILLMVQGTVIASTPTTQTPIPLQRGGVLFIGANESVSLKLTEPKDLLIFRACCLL
As to the kind of experiment: MPI inhibition at elevated mannose 6-phosphate – biochemical, fluorescence intensity, high mannose 6-phosphate, primary screen (AID 1220).

The target in the next assay is Prothrombin (Homo sapiens, UniProt P00734). As to the kind of experiment: Thrombin 1536 HTS Dose Response Confirmation. [Related pubchem assays: 1046 (Thrombin 1536 HTS; hits were confirmed in this assay)]. It is filed as functional.
Another assay deals with T3, Protein Tat (Human immunodeficiency virus type 1 group M subtype B (isolate HXB2)(HIV-1), UniProt P04608).
T3 sequence (P04608 whole entry): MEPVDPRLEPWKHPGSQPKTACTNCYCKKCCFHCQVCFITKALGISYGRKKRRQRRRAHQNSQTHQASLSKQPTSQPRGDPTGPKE
Type of assay: functional.

The target of another assay is X-box-binding protein 1 (Homo sapiens, UniProt P17861). It is filed as functional, Cricetulus griseus.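 Further: confirmatory dose-response counter-screen serving a CHOP assay.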
Assay [5] is described as follows: Trypanosoma cruzi growth suppression in host cells – NIH3T3 host cells, beta-gal luminescence, confirmation (AID 2044).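 Further: intracellular parasites grown in NIH/3T3 mouse fibroblasts as host cells; luminescent beta-galactosidase reporter signal from transgenic T. cruzi replicating inside host cells; inhibitors lower the luminescence signal.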 Type of assay: functional, cell-based.
The target of assay [6] is E3 ubiquitin-protein ligase Mdm2 (Homo sapiens, UniProt Q00987). In words: MDM2-luc reporter signal enhancers, multi-concentration potency testing, MDM2 ubiquitin-protein ligase inhibitor program, whole-cell format, luminescence detection, 384-well microplate (AID 1394).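 Further: MDM2 E3 inhibitors raise luminescence so EC50 is for signal enhancement.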 Type of assay: functional.
For assay [7], the target named is T4, High affinity choline transporter 1 (Homo sapiens, UniProt Q9GZV3).
T4 sequence (Q9GZV3 whole entry): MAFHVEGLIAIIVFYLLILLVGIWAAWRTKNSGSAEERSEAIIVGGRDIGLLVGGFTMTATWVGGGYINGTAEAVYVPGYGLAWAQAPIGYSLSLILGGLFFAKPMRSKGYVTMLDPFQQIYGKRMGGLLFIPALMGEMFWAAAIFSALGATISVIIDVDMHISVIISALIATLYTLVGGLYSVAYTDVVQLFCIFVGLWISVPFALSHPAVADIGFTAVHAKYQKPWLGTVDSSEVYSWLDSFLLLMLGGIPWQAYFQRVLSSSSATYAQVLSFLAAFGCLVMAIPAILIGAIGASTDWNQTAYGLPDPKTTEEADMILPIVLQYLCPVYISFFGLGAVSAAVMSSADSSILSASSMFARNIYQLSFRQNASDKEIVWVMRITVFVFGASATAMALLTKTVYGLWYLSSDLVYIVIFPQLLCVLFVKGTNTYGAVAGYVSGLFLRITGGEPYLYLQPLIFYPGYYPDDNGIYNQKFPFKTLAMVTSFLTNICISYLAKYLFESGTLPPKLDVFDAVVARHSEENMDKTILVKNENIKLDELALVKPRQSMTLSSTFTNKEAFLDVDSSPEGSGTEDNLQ
As to the kind of experiment: human choline transporter blockers, potency – cell-based, 5-point CRC, membrane potential dye, dose response (AID 504840). It is filed as functional.

The nature of assay [8]: NIH3T3 cell viability loss – ATP luminescence, mouse fibroblasts, counter-screen, dose response (AID 2010).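 Further: cells exposed to compound for about 90 hours before reading.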 Type of assay: functional, cell-based. Background: Counterscreens check selectivity or assay interference.
Another assay deals with Streptococcus. In words: GAS UMAA2166 growth inhibition – luminescence, BacTiterGlo, counter-screen for streptokinase expression inhibitor project, dose response (AID 1915).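 Further: potency for reduction of bacterial viability or growth.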 Type of assay: functional, organism-based.
In assay [9] the test system is Streptococcus sp. 'group A'. As to the kind of experiment: Streptococcus pyogenes SK(-)GAS viability under kanamycin – luminescence, BacTiterGlo, confirmation, counter-screen for streptokinase expression inhibitor project, dose response (AID 1900). It is filed as functional, organism-based.
Assay [10] concerns the target Sphingosine 1-phosphate receptor 2 (Homo sapiens, UniProt O95136). As to the kind of experiment: Dose Response Cell Based Assay for Agonists of the S1P2 Receptor. [Related pubchem assays: 729, 736, 843 ]. It is filed as functional.
Assay [11] concerns the target T5, Tyrosine-protein phosphatase non-receptor type 7 (Homo sapiens, UniProt P35236).
T5 sequence (P35236 whole entry): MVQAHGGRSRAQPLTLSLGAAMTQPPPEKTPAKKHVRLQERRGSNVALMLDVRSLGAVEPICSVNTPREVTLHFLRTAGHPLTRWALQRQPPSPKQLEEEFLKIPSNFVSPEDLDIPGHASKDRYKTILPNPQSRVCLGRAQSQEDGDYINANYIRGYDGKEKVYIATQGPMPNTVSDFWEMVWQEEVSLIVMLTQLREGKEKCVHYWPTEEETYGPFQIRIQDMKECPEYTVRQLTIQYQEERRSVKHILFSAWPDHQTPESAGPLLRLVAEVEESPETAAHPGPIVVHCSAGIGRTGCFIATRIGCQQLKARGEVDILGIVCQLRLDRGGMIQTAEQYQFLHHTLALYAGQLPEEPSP
As to the kind of experiment: HePTP tyrosine phosphatase activity blockers – biochemical, absorbance, leukemia target, primary screen (AID 521). It is filed as functional.

The next assay has as its target Transthyretin (Homo sapiens, UniProt P02766). As to the kind of experiment: Luminescence-based cell-based high throughput dose response assay to identify activators of Transthyretin (TTR) transcription. It is filed as functional.
Assay [12] can be described thus: Luminescence Cell-Based Dose Response HTS to Identify Activators of Luciferase Translation or Activity in H4 […] Cells. [Related pubchem assays: 1829 (Project Summary), 1814 (Primary HTS)]. Type of assay: functional.
Assay [13] in a line: Luminescence Cell-Based Dose Confirmation HTS to Identify Activators of 5'UTR Stem-Loop Driven Alpha-Synuclein mRNA Translation in H4 Neuroglioblastoma Cells. [Related pubchem assays: 1829 (Project Summary), 1814 (Primary HTS)]. Type of assay: functional.
For another assay, the system named is H4. In words: Luminescence Cell-Based Dose Response HTS to Identify Activators of 5'UTR Stem-Loop Driven Prion Protein mRNA Translation in H4 Neuroglioblastoma Cells. [Related pubchem assays: 1829 (Project Summary), 1814 (Primary HTS)]. Type of assay: functional. As to conditions: Homo sapiens.
For assay [14], the target named is E3 ubiquitin-protein ligase UHRF1 (Homo sapiens, UniProt Q96T88). As to the kind of experiment: Counterscreen for inhibitors of 5-meCpG-binding domain protein 2 (MBD2): TRFRET-based biochemical high throughput dose response assay to identify inhibitors of binding of ubiquitin-like with PHD and ring finger domains 1 (UHRF1) to methylated oligonucleotide.
The target in assay [15] is T6, Estrogen receptor beta (Homo sapiens, UniProt Q92731).
Assay [16] concerns the target T6, Estrogen receptor beta. In words: blockers of SRC-3 recruitment to ERβ – biochemical, ELISA, streptavidin-HRP readout, orthogonal assay, confirmation (AID 1060). A general note: An ELISA detects its analyte on a solid surface through an enzyme-linked reagent.

T6 sequence (Q92731 whole entry): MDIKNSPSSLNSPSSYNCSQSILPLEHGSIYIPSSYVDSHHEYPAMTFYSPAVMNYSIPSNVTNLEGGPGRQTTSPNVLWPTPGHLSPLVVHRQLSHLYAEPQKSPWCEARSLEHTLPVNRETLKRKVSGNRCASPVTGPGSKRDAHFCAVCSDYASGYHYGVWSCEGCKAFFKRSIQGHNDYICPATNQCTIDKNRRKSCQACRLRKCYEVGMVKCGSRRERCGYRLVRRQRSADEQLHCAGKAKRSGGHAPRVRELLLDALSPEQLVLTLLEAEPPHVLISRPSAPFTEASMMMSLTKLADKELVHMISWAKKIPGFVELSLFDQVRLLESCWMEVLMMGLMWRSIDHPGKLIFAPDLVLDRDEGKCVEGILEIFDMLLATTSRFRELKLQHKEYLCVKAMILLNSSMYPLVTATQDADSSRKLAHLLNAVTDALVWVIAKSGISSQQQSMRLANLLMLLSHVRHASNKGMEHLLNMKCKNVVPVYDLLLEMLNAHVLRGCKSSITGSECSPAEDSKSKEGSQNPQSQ
T1 sequence (Q9NPC2 whole entry): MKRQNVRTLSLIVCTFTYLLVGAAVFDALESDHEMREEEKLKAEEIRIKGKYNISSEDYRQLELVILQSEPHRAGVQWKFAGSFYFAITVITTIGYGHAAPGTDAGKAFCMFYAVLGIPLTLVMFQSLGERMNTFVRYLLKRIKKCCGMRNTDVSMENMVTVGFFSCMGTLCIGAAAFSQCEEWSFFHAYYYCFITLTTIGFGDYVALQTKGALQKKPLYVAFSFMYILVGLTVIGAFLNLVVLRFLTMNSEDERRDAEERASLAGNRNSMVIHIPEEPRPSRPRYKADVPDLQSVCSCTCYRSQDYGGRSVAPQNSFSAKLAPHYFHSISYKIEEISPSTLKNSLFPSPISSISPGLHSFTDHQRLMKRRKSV
X-box-binding protein 1, sequence (P17861 whole entry): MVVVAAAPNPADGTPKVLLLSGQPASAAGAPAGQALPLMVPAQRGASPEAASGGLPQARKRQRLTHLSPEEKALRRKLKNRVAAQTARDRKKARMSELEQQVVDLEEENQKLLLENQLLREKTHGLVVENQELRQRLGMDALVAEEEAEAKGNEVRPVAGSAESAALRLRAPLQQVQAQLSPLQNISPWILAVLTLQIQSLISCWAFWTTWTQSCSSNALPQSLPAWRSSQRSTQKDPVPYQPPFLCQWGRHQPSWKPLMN
Potassium channel subfamily K member 3, sequence (O54912 whole entry, the tested form may be a part): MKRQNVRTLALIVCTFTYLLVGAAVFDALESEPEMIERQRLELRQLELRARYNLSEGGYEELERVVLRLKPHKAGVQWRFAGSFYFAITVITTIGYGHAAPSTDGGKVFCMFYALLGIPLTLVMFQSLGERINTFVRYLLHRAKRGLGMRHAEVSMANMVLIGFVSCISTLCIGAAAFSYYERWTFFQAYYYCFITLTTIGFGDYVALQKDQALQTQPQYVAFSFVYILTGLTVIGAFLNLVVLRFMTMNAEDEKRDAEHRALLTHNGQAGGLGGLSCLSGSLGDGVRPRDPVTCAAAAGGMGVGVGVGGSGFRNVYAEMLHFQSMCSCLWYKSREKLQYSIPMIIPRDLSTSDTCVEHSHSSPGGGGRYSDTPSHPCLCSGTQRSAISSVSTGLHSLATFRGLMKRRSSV
E3 ubiquitin-protein ligase Mdm2, sequence (Q00987 whole entry): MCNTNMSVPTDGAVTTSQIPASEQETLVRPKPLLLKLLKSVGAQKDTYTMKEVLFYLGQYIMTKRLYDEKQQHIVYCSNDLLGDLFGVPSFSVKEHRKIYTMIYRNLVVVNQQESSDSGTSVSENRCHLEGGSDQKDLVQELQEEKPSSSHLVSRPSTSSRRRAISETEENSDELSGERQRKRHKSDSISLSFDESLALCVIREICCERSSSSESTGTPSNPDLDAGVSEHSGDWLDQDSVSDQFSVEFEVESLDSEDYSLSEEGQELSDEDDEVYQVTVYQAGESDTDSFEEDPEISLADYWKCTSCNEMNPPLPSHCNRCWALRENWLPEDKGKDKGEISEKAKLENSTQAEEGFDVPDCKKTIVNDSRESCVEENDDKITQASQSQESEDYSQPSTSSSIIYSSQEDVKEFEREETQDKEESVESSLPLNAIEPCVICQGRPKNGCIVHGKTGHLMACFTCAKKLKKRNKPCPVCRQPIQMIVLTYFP
Sphingosine 1-phosphate receptor 2, sequence (O95136 whole entry): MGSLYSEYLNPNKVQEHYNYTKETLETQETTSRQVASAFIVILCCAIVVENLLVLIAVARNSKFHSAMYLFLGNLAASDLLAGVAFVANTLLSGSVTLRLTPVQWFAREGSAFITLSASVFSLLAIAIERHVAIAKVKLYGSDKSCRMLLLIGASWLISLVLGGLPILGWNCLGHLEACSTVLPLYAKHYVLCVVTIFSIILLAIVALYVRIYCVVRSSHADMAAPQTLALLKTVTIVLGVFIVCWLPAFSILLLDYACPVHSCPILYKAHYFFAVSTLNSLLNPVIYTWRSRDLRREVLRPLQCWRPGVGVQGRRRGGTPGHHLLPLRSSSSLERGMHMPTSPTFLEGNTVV
E3 ubiquitin-protein ligase UHRF1, sequence (Q96T88 whole entry, the tested form may be a part): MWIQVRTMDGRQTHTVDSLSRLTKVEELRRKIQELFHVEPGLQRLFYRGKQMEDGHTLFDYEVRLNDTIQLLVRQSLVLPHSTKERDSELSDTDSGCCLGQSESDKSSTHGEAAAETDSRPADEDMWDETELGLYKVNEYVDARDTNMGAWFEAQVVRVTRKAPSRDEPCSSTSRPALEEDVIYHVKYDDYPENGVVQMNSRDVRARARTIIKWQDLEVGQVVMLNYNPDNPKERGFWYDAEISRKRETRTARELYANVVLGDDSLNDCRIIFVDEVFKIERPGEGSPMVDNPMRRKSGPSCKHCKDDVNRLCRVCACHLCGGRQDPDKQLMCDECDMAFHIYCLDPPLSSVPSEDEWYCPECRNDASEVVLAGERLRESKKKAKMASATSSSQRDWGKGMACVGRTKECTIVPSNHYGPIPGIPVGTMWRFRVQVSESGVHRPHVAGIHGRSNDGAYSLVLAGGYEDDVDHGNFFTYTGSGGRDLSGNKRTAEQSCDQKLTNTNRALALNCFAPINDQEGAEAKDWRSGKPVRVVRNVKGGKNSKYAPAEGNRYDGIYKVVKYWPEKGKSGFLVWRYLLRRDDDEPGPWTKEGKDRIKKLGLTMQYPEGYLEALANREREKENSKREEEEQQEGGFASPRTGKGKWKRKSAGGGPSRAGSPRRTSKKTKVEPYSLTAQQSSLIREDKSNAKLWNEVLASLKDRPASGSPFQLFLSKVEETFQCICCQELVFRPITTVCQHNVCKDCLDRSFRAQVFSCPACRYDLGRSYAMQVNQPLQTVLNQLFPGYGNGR

On to `COc1ccccc1C(=O)Nc1cccc(NC(=O)c2cccc(C)c2)c1`, for which the IC50 – broadly, the midpoint of a concentration-inhibition curve – in assay [1] is 0.012 µM (active); in [2], 0.48 µM (active); in [3], 0.26 µM (active).

Turning to `Nc1cccc2c1=NC1(CCCCC1)[N+]=2[O-]`, the IC50 in [4] was > 50 µM (not active); on Prothrombin, > 50 µM (not active); on Protein Tat, > 100 µM (inconclusive).

Take `CC(C)c1ccc2c(c1)C1(NN=C(c3ccccc3)S1)C(=O)N2` (configuration not stated): the “Absolute IC50 (XBP1)” value on X-box-binding protein 1 stood at 10 µM. The 50% effective concentration (EC50) (as a rule, the concentration that produces a half-maximal response) in assay [5] is 0.333 µM (active); in [6], 1.42 µM (active); in assay [8], 6.8 µM (active); in the assay on Streptococcus it was 2.81 µM (active); in assay [9], < 0.06 µM (active). Also, the IC50 in assay [7] was 12.6 µM (active).

For the molecule `O=C(NCC1(c2ccccc2)CCCC1)C(=O)N1CCOCC1`, the EC50 in [10] is given as > 50 µM (not active).

Regarding `O=C(Nc1ccccc1)c1ccc(NCC2CCCO2)c(S(=O)(=O)N2CCOCC2)c1` (configuration not stated), the IC50 in assay [11] is > 100 µM (not active).

`COc1cccc(-c2csc(NC(=O)C3CC3)n2)c1`: the EC50 is > 167 µM (inactive) at Transthyretin, 33.5 µM (active) in assay [12], 94 µM (active) in assay [13] and > 120 µM (not active) in the assay with H4.

Regarding `Cc1onc(-c2ccccc2Cl)c1C(=O)NCc1ccco1`, the values for the IC50 (in [14]; at Estrogen receptor beta [15]; against Estrogen receptor beta [16]) were > 43.8 µM (inactive), > 50 µM (not active) and > 50 µM (not active), respectively.
